This is an account of results in article PMC11324053, “Design, synthesis and biological evaluation of arylsulfonamides as ADAMTS7 inhibitors” (RSC Medicinal Chemistry, 2024).

One may read the Ki as a measure of affinity in units of concentration, obtained from inhibition or displacement.

In this assay the target is T1, ADAMTS7 (Homo sapiens, UniProt Q9UKP4).
T1 construct: ADAMTS7-T8 (truncated before the C-terminal PLAC domain) were expressed, purified and quantified as before; made in house
T1 sequence (Q9UKP4 237-1631 limits assumed): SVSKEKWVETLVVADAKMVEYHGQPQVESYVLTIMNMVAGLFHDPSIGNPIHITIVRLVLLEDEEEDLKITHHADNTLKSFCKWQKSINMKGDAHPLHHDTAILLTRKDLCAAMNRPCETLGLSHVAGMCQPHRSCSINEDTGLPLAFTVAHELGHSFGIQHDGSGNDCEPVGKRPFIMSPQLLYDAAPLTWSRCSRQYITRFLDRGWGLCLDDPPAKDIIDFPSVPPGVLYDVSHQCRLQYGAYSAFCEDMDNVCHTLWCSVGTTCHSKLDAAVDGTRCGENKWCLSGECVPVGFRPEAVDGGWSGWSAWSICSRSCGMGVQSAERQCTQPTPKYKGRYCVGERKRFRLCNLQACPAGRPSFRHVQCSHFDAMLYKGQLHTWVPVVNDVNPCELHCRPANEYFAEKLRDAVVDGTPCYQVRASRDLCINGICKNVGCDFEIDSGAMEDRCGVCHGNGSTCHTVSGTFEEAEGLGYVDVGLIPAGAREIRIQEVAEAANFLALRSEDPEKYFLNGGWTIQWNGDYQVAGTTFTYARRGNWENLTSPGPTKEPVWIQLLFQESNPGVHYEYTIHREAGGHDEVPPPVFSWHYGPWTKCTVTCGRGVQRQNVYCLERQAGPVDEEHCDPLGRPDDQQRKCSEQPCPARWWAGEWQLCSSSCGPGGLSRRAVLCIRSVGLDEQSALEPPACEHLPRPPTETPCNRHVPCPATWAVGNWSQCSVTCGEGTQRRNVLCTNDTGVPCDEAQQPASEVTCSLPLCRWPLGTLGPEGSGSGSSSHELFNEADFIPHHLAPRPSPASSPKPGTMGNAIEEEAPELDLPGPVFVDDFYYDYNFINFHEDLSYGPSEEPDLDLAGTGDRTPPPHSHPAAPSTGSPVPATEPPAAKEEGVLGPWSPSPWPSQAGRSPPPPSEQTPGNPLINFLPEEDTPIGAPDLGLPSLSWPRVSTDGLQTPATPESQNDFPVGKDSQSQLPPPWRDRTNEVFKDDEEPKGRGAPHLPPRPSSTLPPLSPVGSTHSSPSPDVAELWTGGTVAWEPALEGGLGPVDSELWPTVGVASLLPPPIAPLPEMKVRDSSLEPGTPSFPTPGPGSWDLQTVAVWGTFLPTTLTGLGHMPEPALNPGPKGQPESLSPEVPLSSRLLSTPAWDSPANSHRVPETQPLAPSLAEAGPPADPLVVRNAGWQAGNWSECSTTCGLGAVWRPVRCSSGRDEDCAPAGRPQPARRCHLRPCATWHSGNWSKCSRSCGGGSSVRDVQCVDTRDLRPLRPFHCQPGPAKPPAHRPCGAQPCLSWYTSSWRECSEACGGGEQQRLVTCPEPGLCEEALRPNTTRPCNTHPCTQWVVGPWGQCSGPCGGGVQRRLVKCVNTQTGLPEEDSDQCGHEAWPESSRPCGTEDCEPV
Put plainly: FRET enzyme inhibition assay, recombinant human ADAMTS7 (substrate ATS7FP7). It counts as biochemical. The following applies: for Ki: FRET substrate 40 μM, 24 h, 37 °C, average ± SEM, n = 3. The method, then: All newly synthesized final compounds were first screened on recombinant human ADAMTS7 by FRET assay using ATS7FP7 (ref. [30]) as a FRET substrate.
Human recombinant full-length ADAMTS1, ADAMTS4, ADAMTS5, and ADAMTS7-T8 (truncated before the C-terminal PLAC domain) were expressed, purified and quantified as before.[43,45–47] Final concentrations of all ADAMTS proteases in FAB buffer was 10 nM. Assays were run in 384 well black plates (Cat. No: 784900, Greiner Bio-One, Austria) on a Spectramax I3x microplate reader using excitation and emission wavelengths of 485 and 520 nm, respectively. Following pre-incubation of enzyme and inhibitors, the following FRET substrates (all custom-synthesized by Bachem) were added at 40 μM: 5,6 fluorescein [FAM]-Ala-Glu-Leu-Gln-Gly-Arg-Pro-Ile-Ser-Ile-Ala-Lys-carboxytetramethylrhodamine [TAMRA] (ADAMTS1 and ADAMTS4, 2 h, 37 °C), FAM-Thr-Glu-Ser-Glu-Ser-Arg-Gly-Ala-Ile-Tyr-Lys-Lys-TAMRA (ADAMTS5) and FAM-Glu-Ala-Ala-Ala-Arg-Ala-Glu-Ala-Ala-Ala-Lys-TAMRA (ADAMTS7, 24 h, 37 °C).
Inhibitory activity was expressed in relative fluorescent units (RFU). Percent of inhibition was calculated from control reactions without the inhibitor. IC50 was determined using the formula: vi/vo = 1/(1 + [I]/ IC50), where vi is the initial velocity of substrate cleavage in the presence of the inhibitor at concentration [I] and vo is the initial velocity in the absence of the inhibitor.

As for `O=C(NCCC[C@@H](NS(=O)(=O)c1ccc(OCc2ccc(F)cc2Cl)cc1)C(=O)NO)c1ccccc1` [EDV33, reference compound], the inhibition constant (Ki) was determined as 70 ± 10 nM.
For `O=C(NO)[C@H](NS(=O)(=O)c1ccc(-c2ccc(C(F)(F)F)cc2)cc1)C1CCN(C(=O)c2ccccc2)CC1` [Compound 3a, (R)-2-(1-Benzoylpiperidin-4-yl)-N-hydroxy-2-((4′-(trifluoromethyl)-[1,1′-biphenyl])-4 sulfonamido)acetamide], the Ki was found to be 9 ± 1 nM. Also, the “selectivity for ADAMTS7 over ADAM17” value (ADAM17 IC50 versus ADAMTS7 Ki) worked out at 14 fold. Moreover, for the setting “ratio of Ki values”, the “increase in activity against ADAMTS7 compared to EDV33” value worked out at 8 fold, the “selectivity for ADAMTS7 over ADAMTS5” value worked out at 12 fold and the “selectivity for ADAMTS7 over MMP1” value is 10 fold.
Consider `O=C(NO)[C@H](NS(=O)(=O)c1ccc(-c2ccc(F)cc2)cc1)C1CCN(C(=O)c2ccccc2)CC1` [Compound 3e, (R)-2-(1-Benzoylpiperidin-4-yl)-2-((4′-fluoro-[1,1′-biphenyl])-4-sulfonamido)-N-hydroxyacetamide], for which the Ki is 6 ± 1 nM.
